# From US20260234124A1, “Substituted Pyrazolyl-Pyridinyl Compounds as Ligand Directed Degraders of IRAK3” (Celgene Corporation, priority 2022, published 2026)
# Biological target: T1, IRAK3 (Homo sapiens, UniProt Q9Y616)
# T1 sequence (Q9Y616 1-596): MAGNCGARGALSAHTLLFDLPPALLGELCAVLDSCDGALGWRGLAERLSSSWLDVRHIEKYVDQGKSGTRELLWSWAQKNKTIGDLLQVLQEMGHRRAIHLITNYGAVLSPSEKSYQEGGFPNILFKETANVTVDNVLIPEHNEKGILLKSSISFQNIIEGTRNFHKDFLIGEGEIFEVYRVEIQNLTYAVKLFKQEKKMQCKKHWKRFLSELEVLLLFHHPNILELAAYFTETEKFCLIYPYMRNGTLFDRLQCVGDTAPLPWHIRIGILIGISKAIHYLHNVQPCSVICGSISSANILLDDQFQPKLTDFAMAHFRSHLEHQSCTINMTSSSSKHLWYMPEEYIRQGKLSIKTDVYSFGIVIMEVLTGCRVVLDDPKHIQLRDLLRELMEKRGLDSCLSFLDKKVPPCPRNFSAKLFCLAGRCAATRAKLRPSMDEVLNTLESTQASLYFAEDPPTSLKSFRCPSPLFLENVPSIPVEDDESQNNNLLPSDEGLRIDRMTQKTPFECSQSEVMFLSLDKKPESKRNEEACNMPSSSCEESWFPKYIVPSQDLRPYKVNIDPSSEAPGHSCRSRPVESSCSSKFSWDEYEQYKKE
# Test: IRAK3 biochemical binding assay (LanthaScreen Eu Kinase Binding, TR-FRET)
# Conditions: 10 nM tracer, 10 nM IRAK3, 1 hour at room temperature
# Description: Example B3. IRAK3 Biochemical Binding Assay
# The LanthaScreen® Eu Kinase Binding assay was performed as described by the vendor (ThermoFisher Scientific Waltham, MA). Briefly, 100× solutions of compound were prepared in DMSO via serial dilution of the 10 mM stock solution in a 384-well reagent plate using 3-fold intervals to achieve final concentrations. 1 μL of the compound dilution series were added to the corresponding wells of a 384-well reagent plate containing 32.3 μL of 1× buffer (50 mM HEPES pH 7.4, […], 1 mM EGTA, 0.01% Brij-35). 5 μL of the buffer diluted compounds were transferred to the corresponding wells of a 384-well assay plate. 5 μL of 3× tracer was transferred to each well of the assay plate for a final tracer concentration of 10 nM. Finally, 5 μL of the 3× Eu-Anti-GST and IRAK3 mix was transferred to each well for a final concentration of 2 nM and 10 nM, respectively. Reactions were allowed to incubate for 1 hour at room temperature. TR-FRET signal of the interaction ([…]/λem 665/λem 615) was read at room temperature with a delay time of 100 μs and an integration time of 200 μs using an Envision plate reader. Background corrected emission signal ratios at each compound concentration were used to calculate percentage of inhibition (% o Inhibition). Plots of % Inhibition versus inhibitor concentrations were fit according to a dose-response equation (Eq. 1) to generate IC50 and Hill slope values using Dotmatics software (Dotmatics, Bishops Storford, Hertfordshire, England).
# Using these assays, IC50, Dmax, EC50, and DC50 values of the following compounds were determined. Dmax is defined as the maximum percent degradation achieved and DC50 is the concentration at which 50% degradation is achieved.
row,Compound,IC50 [nM]
1,"C[C@@H](Oc1cc(-c2cnn(C3CCN(C4CCC5(CC4)CCN(C(=O)c4ccc6c(c4)C(=O)N(C4CCC(=O)NC4=O)C6=O)CC5)CC3)c2)cnc1N)c1c(Cl)ccc(F)c1Cl (stereo partly drawn) [Compound 18, 5-(9-(4-(4-(6-amino-5-((R)-1-(2,6-dichloro-3-fluorophenyl)ethoxy)pyridin-3-yl)-1H-pyrazol-1-yl)piperidin-1-yl)-3-azaspiro[5.5]undecane-3-carbonyl)-2-(2,6-dioxopiperidin-3-yl)isoindoline-1,3-dione]",12
2,"C[C@@H](Oc1cc(-c2cnn(C3CCN(C4CCC5(CC4)CCN(C(=O)c4cccc6c4CN(C4CCC(=O)NC4=O)C6=O)CC5)CC3)c2)cnc1N)c1c(Cl)ccc(F)c1Cl (stereo partly drawn) [Compound 21, 3-(4-(9-(4-(4-(6-amino-5-((R)-1-(2,6-dichloro-3-fluorophenyl)ethoxy)pyridin-3-yl)-1H-pyrazol-1-yl)piperidin-1-yl)-3-azaspiro[5.5]undecane-3-carbonyl)-1-oxoisoindolin-2-yl)piperidine-2,6-dione]",2
3,"Cc1ncsc1-c1ccc(CNC(=O)[C@@H]2C[C@@H](O)CN2C(=O)[C@@H](NC(=O)COCCOCCOCCOCCOCCOCCN2CCC(n3cc(-c4cnc(N)c(O[C@H](C)c5c(Cl)ccc(F)c5Cl)c4)cn3)CC2)C(C)(C)C)cc1 [Compound 6, (2S,4R)-1-((S)-23-(4-(4-(6-amino-5-((R)-1-(2,6-dichloro-3-fluorophenyl)ethoxy)pyridin-3-yl)-1H-pyrazol-1-yl)piperidin-1-yl)-2-(tert-butyl)-4-oxo-6,9,12,15,18,21-hexaoxa-3-azatricosanoyl)-4-hydroxy-N-(4-(4-methylthiazol-5-yl)benzyl)pyrrolidine-2-carboxamide]",108
4,"C[C@@H](Oc1cc(-c2cnn(C3CCN(CCOCCOCCOCCNC(=O)COc4ccc5c(c4)C(=O)N(C4CCC(=O)NC4=O)C5=O)CC3)c2)cnc1N)c1c(Cl)ccc(F)c1Cl (stereo partly drawn) [Compound 16, N-(2-(2-(2-(2-(4-(4-(6-amino-5-((R)-1-(2,6-dichloro-3-fluorophenyl)ethoxy)pyridin-3-yl)-1H-pyrazol-1-yl)piperidin-1-yl)ethoxy)ethoxy)ethoxy)ethyl)-2-((2-(2,6-dioxopiperidin-3-yl)-1,3-dioxoisoindolin-5-yl)oxy)acetamide]",47
5,"C[C@@H](Oc1cc(-c2cnn(C3CCN(C4CCC5(CC4)CCN(C(=O)c4ccc6c(c4)C(=O)N(C4CCC(=O)NC4=O)C6)CC5)CC3)c2)cnc1N)c1c(Cl)ccc(F)c1Cl (stereo partly drawn) [Compound 19, 3-(6-(9-(4-(4-(6-amino-5-((R)-1-(2,6-dichloro-3-fluorophenyl)ethoxy)pyridin-3-yl)-1H-pyrazol-1-yl)piperidin-1-yl)-3-azaspiro[5.5]undecane-3-carbonyl)-1-oxoisoindolin-2-yl)piperidine-2,6-dione]",4
6,"Cc1ncsc1-c1ccc(CNC(=O)[C@@H]2C[C@@H](O)CN2C(=O)[C@@H](NC(=O)COCCOCCOCCOCCOCCOCCOCCN2CCC(n3cc(-c4cnc(N)c(O[C@H](C)c5c(Cl)ccc(F)c5Cl)c4)cn3)CC2)C(C)(C)C)cc1 [Compound 7, (2S,4R)-1-((S)-26-(4-(4-(6-amino-5-((R)-1-(2,6-dichloro-3-fluorophenyl)ethoxy)pyridin-3-yl)-1H-pyrazol-1-yl)piperidin-1-yl)-2-(tert-butyl)-4-oxo-6,9,12,15,18,21,24-heptaoxa-3-azahexacosanoyl)-4-hydroxy-N-(4-(4-methylthiazol-5-yl)benzyl)pyrrolidine-2-carboxamide]",331
7,"C[C@@H](Oc1cc(-c2cnn(C3CCN(CCOCCOCCOCCNC(=O)COc4cccc5c4C(=O)N(C4CCC(=O)NC4=O)C5=O)CC3)c2)cnc1N)c1c(Cl)ccc(F)c1Cl (stereo partly drawn) [Compound 11, N-(2-(2-(2-(2-(4-(4-(6-amino-5-((R)-1-(2,6-dichloro-3-fluorophenyl)ethoxy)pyridin-3-yl)-1H-pyrazol-1-yl)piperidin-1-yl)ethoxy)ethoxy)ethoxy)ethyl)-2-((2-(2,6-dioxopiperidin-3-yl)-1,3-dioxoisoindolin-4-yl)oxy)acetamide]",95
8,"C[C@@H](Oc1cc(-c2cnn(C3CCN(C4CCC5(CC4)CCN(C(=O)c4ccc6c(c4)CN(C4CCC(=O)NC4=O)C6=O)CC5)CC3)c2)cnc1N)c1c(Cl)ccc(F)c1Cl (stereo partly drawn) [Compound 20, 3-(5-(9-(4-(4-(6-amino-5-((R)-1-(2,6-dichloro-3-fluorophenyl)ethoxy)pyridin-3-yl)-1H-pyrazol-1-yl)piperidin-1-yl)-3-azaspiro[5.5]undecane-3-carbonyl)-1-oxoisoindolin-2-yl)piperidine-2,6-dione]",10
9,"C[C@@H](Oc1cc(-c2cnn(C3CCN(CCOCCOCCOCCOCCNC(=O)COc4cccc5c4C(=O)N(C4CCC(=O)NC4=O)C5=O)CC3)c2)cnc1N)c1c(Cl)ccc(F)c1Cl (stereo partly drawn) [Compound 12, N-(14-(4-(4-(6-amino-5-((R)-1-(2,6-dichloro-3-fluorophenyl)ethoxy)pyridin-3-yl)-1H-pyrazol-1-yl)piperidin-1-yl)-3,6,9,12-tetraoxatetradecyl)-2-((2-(2,6-dioxopiperidin-3-yl)-1,3-dioxoisoindolin-4-yl)oxy)acetamide]",56
10,"Cc1ncsc1-c1ccc(CNC(=O)[C@@H]2C[C@@H](O)CN2C(=O)[C@@H](NC(=O)COCCOCCN2CCC(n3cc(-c4cnc(N)c(O[C@H](C)c5c(Cl)ccc(F)c5Cl)c4)cn3)CC2)C(C)(C)C)cc1 [Compound 2, (2S,4R)-1-((S)-2-(2-(2-(2-(4-(4-(6-amino-5-((R)-1-(2,6-dichloro-3-fluorophenyl)ethoxy)pyridin-3-yl)-1H-pyrazol-1-yl)piperidin-1-yl)ethoxy)ethoxy)acetamido)-3,3-dimethylbutanoyl)-4-hydroxy-N-(4-(4-methylthiazol-5-yl)benzyl)pyrrolidine-2-carboxamide]",139
11,"Cc1ncsc1-c1ccc(CNC(=O)[C@@H]2C[C@@H](O)CN2C(=O)[C@@H](NC(=O)COCCOCCOCCN2CCC(n3cc(-c4cnc(N)c(O[C@H](C)c5c(Cl)ccc(F)c5Cl)c4)cn3)CC2)C(C)(C)C)cc1 [Compound 3, (2S,4R)-1-((S)-14-(4-(4-(6-amino-5-((R)-1-(2,6-dichloro-3-fluorophenyl)ethoxy)pyridin-3-yl)-1H-pyrazol-1-yl)piperidin-1-yl)-2-(tert-butyl)-4-oxo-6,9,12-trioxa-3-azatetradecanoyl)-4-hydroxy-N-(4-(4-methylthiazol-5-yl)benzyl)pyrrolidine-2-carboxamide]",186
12,"C[C@@H](Oc1cc(-c2cnn(C3CCN(CCNC(=O)COc4cccc5c4C(=O)N(C4CCC(=O)NC4=O)C5=O)CC3)c2)cnc1N)c1c(Cl)ccc(F)c1Cl (stereo partly drawn) [Compound 8, N-(2-(4-(4-(6-amino-5-((R)-1-(2,6-dichloro-3-fluorophenyl)ethoxy)pyridin-3-yl)-1H-pyrazol-1-yl)piperidin-1-yl)ethyl)-2-((2-(2,6-dioxopiperidin-3-yl)-1,3-dioxoisoindolin-4-yl)oxy)acetamide]",25
13,"Cc1ncsc1-c1ccc(CNC(=O)[C@@H]2C[C@@H](O)CN2C(=O)[C@@H](NC(=O)CCCN2CCC(n3cc(-c4cnc(N)c(O[C@H](C)c5c(Cl)ccc(F)c5Cl)c4)cn3)CC2)C(C)(C)C)cc1 [Compound 1, (2S,4R)-1-((S)-2-(4-(4-(4-(6-amino-5-((R)-1-(2,6-dichloro-3-fluorophenyl)ethoxy)pyridin-3-yl)-1H-pyrazol-1-yl)piperidin-1-yl)butanamido)-3,3-dimethylbutanoyl)-4-hydroxy-N-(4-(4-methylthiazol-5-yl)benzyl)pyrrolidine-2-carboxamide]",111
14,"C[C@@H](Oc1cc(-c2cnn(C3CCN(C4CCC5(CC4)CCN(C(=O)c4cccc(NC6CCC(=O)NC6=O)c4)CC5)CC3)c2)cnc1N)c1c(Cl)ccc(F)c1Cl (stereo partly drawn) [Compound 22, 3-((3-(9-(4-(4-(6-Amino-5-((R)-1-(2,6-dichloro-3-fluorophenyl)ethoxy)pyridin-3-yl)-1H-pyrazol-1-yl)piperidin-1-yl)-3-azaspiro[5.5]undecane-3-carbonyl)phenyl)amino)piperidine-2,6-dione]",5
